Experimental data from US7951816B2, “Compound containing basic group and use thereof” (Ono Pharmaceutical Co., Ltd., priority 2004, dated 2011).
pIC50: −log10 of the molar value.

Key:
[1] = target: T1, CXCR4 (Homo sapiens, UniProt P61073); test: Study for inhibition of binding human SDF-1 to CEM cells (125I-SDF-1); conditions: 125I-SDF-1 binding to CEM cells
T1 construct: a human T cell strain in which CXCR4 is known to be expressed; endogenous in cells; host or cells: CEM cells (human T cell line), whole cells
T1 sequence (P61073 whole entry): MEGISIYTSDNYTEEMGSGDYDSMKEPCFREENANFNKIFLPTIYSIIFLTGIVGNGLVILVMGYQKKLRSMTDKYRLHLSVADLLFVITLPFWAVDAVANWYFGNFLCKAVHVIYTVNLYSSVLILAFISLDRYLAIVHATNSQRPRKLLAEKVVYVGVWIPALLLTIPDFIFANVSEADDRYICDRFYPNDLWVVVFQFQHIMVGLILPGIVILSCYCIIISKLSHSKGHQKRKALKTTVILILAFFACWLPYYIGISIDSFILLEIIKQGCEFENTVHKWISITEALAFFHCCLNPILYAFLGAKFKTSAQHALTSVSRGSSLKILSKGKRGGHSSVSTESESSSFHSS
Description: Specifically, as a system of screening a compound that inhibits the binding between SDF-1 and CXCR4, for example a system of measuring the binding between iodine-labeled SDF-1 and a human T cell strain in which CXCR4 is known to be expressed is operable. The identical idea is possible since macrophage (R5) HIV and RANTES, MIP-1α, and MIP-1β all bind to CCR5.
Study for Inhibition of Binding Human SDF-1 to CEM Cells
To human T cell strain CEM cells in a binding buffer (containing HEPES and BSA), the test compound and ^125I-SDF-1 (NEN) were added and the mixture was incubated at 4° C. for 60 minutes. The reacted CEM cells were rapidly filtrated with a GF/B membrane filter plate (Packard) to adsorb. The plate was washed with PBS three times and then dried. Microscint+20 (Packard) was added thereto. An amount of the radioactivity bound to the CEM cells was measured using Top Count (Packard) and inhibition (%) of the test compound was calculated according to the following equation: Inhibition={(Et−Ea)/(Et−Ec)}×100
Et: amount of radioactivity when the test compound is not added,
Ec: amount of radioactivity when non-radioactive SDF-1 (Pepro Tech) is added in an amount of 1000 times as much as ^125I-SDF-1 as a test compound, and
Ea: amount of radioactivity when the test compound is added.

[2] = Influence on blood pressure and heart rate in urethane-anesthetized rat, intravenous cumulative dosing; format: in vivo
Description: Measuring of Influence of a Compound of the Present Invention on Blood Pressure and Heart Rate
A rat was anesthetized with urethane (1.2 g/kg subcutaneous administration). After neck midline dissection, a catheter for measuring blood pressure was inserted into a right common carotid artery. Then, after dissecting inguinal region, a catheter for chemical injection was inserted into a femoral vein and fixed. A catheter for measurement of blood pressure was connected to a pressure transducer and then the pressure waveform was recorded on a thermal writing pen recorder through an amplifier for strain compression (AP-641G (manufactured by NIHON KOHDEN CORPORATION)). In this case, regarding a heart rate, a value through an cardiotachometer (AT-601G (manufactured by NIHON KOHDEN CORPORATION)) using the pressure waveform obtained from the amplifier for strain compression as a trigger was recorded on a thermal writing pen recorder. The test compound was dissolved in a 10% solubilizing agent/physiological saline solution (volume ratio of polyoxyethylene hydroxystearate:propylene glycol:physiological saline=7:3:190) so as to adjust the concentration to 0.1, 0.3, 1, 3 or 10 mg/mL to prepare solutions. Each solution was intravenous administered at 1 mL/Kg through the […] over about 10 seconds. Accumulative administration of stepwise increasing of a dosage was carried out to an individual.

| pIC50 [1] | SMILES | effect of decreasing blood pressure ([2]; 3 mg/kg or less) | rate of increase in the heart rate ([2]; 10 mg/kg) [%] | influence on the heart rate ([2]; low dosage) |
| --- | --- | --- | --- | --- |
| 7.57 | CCCN(CCC)CCCCNCc1ccc(C(=O)N(Cc2ncc[nH]2)Cc2ncc[nH]2)cc1 [Compound 10, 4-({[4-(dipropylamino)butyl]amino}methyl)-N,N-bis(1H-imidazol-2-ylmethyl)benzamide] | – | – | – |
| – | CCCN(CCC)CCCCNCc1ccc(CN(Cc2ncc[nH]2)C(=O)c2ncc[nH]2)cc1 [Compound 19, N-[4-({[4-(dipropylamino)butyl]amino}methyl)benzyl]-N-(1H-imidazol-2-ylmethyl)-1H-imidazole-2-carboxamide] | not recognized | 2 | no influence on the heart rate |
